# Entries after “also recorded” stand apart in the source; their conditions may differ.
# Columns and labels:
# hCMEC/D3 cells [1] = experiment: Quantitative analysis of ezrin (and other proteins) recruitment under Nm bacterial colonies; conditions: for ezrin recruitment / ezrin-containing cortical plaques under Nm colonies after siRNA: infection three days after transfection
# Source text: The recruitment efficiency was estimated by determining the proportion of colonies positive for the indicated protein of interest. At least 50 colonies were observed per coverslip. Each experiment was repeated several times in duplicate or triplicate. Data was examined for significance using Student's t-test.
# (§2) The day before the infection, hCMEC/D3 cells were serum-starved in EBM-2 medium containing 0.1% Bovine Serum albumin (BSA). The day of infection, bacteria from an overnight culture were adjusted to OD600=0.05 and incubated for 2 h at 37° C. in pre-warmed starvation medium. Bacteria were added to cells at a multiplicity of infection (MOI) of 100 and allowed to adhere for 30 minutes. Unbound bacteria were washed with fresh medium and infection was allowed to proceed for 2 h. When needed, drugs were added to cell culture 1 h before infection. Bacteria were tested for growth and aggregation. […] The OD600 was then measured after 1, 2, 3, 4 and 8 h. Aggregation was determined after 2 h of incubation in EBM2, 0.1% BSA in the presence or absence of 100 μM isoproterenol at 37° C. in a 5% CO2 atmosphere under constant shaking.
# For each Nm strain, the recruitment efficiency was estimated by determining the proportion of colonies that efficiently recruited the protein of interest in a “honeycomb shape” just under the colonies. […] At least 50 colonies were scrutinized per coverslip. Each experiment was repeated several times (at least 3). Data was examined for significance using Student's t-test.
# hCMEC/D3 cells [2] = experiment: Growth (size) of Nm colonies on cells under flow; assay type: cell-based, human
# Procedure: (§1) hCMEC/D3 cells were grown on disposable flow chambers (15 μ-Slide VI, IBIDI) coated with 5 μg/cm^2 of rat-tail collagen type I. For experiments investigating Nm colony growth under shear stress, 10^7 bacteria were introduced into the flow chamber and allowed to adhere for […] without flow. Subsequently, a flow corresponding to a shear stress of 0.2 dyn/cm^2 was applied using a syringe pump (Harvard Apparatus). For adhesion assays under shear stress, 10^7 bacteria were allowed to adhere for 20 min under a shear stress of 0.04 dyn/cm^2, then the chambers were washed 1 min under a shear stress of 1 dyn/cm^2 (Mairey et al., 2008. J Exp Med 203, 1939-1950).
# GFP expression in bacteria was induced by adding 1 mM IPTG in EBM2, 0.1% BSA. For experiments aimed at determining the growth of colonies under shear stress, 107 bacteria were then introduced into the flow chamber and allowed to adhere for 20 min without flow. Subsequently, a flow corresponding to a shear stress of 0.2 dyn/cm2 was applied using a syringe pump (Harvard Apparatus). For adhesion assays under shear stress, […] were introduced into the flow chamber and allowed to adhere for 20 min under a shear stress of 0.04 dyn/cm2, subsequently the chamber was washed 1 min under a shear stress of 1 dyn/cm2, Fluorescent bacteria in the chambers were observed using an Olympus CKX41 inverted microscope with a 20× objective, equipped with a shutter for the fluorescence I amp and a Hamamatsu ORCA285 CCD camera. Images were collected and processed using the Openlab software (Improvision). The field under observation corresponded to a surface of 425 μm by 320 μm with a resolution of 0.63 μm per pixel. Images were analyzed using the lmageJ software.
# hCMEC/D3 cells [3] = experiment: Static adhesion of Nm (absence of flow); conditions: isoproterenol pre-treatment
# Procedure: as §2
# hCMEC/D3 cells [4] = experiment: Nm adhesion under shear stress (under flow); assay type: cell-based, human; conditions: pre-treatment with 10 μM isoproterenol, shear stress 0.04 dyn/cm^2
# Procedure: as §1
# GFP expression in bacteria was induced by adding 1 mM IPTG in EBM2, 0.1% BSA. […] For adhesion assays under shear stress, […] were introduced into the flow chamber and allowed to adhere for 20 min under a shear stress of 0.04 dyn/cm2, subsequently the chamber was washed 1 min under a shear stress of 1 dyn/cm2, Fluorescent bacteria in the chambers were observed using an Olympus CKX41 inverted microscope with a 20× objective, equipped with a shutter for the fluorescence I amp and a Hamamatsu ORCA285 CCD camera. […] Images were analyzed using the lmageJ software.
# hCMEC/D3 cell monolayers = experiment: Nm transmigration assay and cell-cell junction gaps; assay type: cell-based, human
# Procedure: hCMEC/D3 cells were grown on 3 μm pore size MilliCell® inserts and infected at a MOI of 10, corresponding to 10^6 bacteria per insert. Four hours after infection, inserts were placed in a well with fresh medium. After additional 30 min, the number of bacteria, which had crossed the cell monolayer was determined by plating the content of the well and counting the number of colony forming units. To estimate the surface and number of macroscopic cell-cell junction openings, MilliCell® inserts were fixed in 4% PFA and immunostained for VE-cadherin and actin, Several baso-lateral cross-sections of each insert were acquired using a Leica SP5 confocal microscope. Surface and number of gaps within the hCMEC/D3 cell monolayer was determined using Leica Application Suite-AF (LAS-AF) software. Data were expressed as the number of gaps per 4×10 ^5 μm^2 of hCMEC/D3 cell monolayer surface. The size of gaps was determined using the apparent size of a Nm diplococcus as surface unit (approximately 1.7 μm^2).
# Briefly, hCMEC/D3 cells were grown on 3 μm pore size MilliCell® inserts and infected at a MOI of 10 (10^6 bacteria per insert). […] After 30 min, the number of bacteria, which had crossed the monolayer of endothelial cells, was then measured by plating the content of dilutions of the lower compartment on agar plates and counting the number of colony forming units (CFU). […]
# N. meningitidis = experiment: Nm growth in culture and bacterial aggregation; conditions: 100 μM isoproterenol; data not shown
molecule,measurement,setting,value
"βarr1 and βarr2 siRNAs: small interfering RNAs targeting human βarrestin-1 (SEQ ID NO: 4) and βarrestin-2 (SEQ ID NO: 5) (guide 1 AAAGCCUUCUGCGCGGAGAAU; guide 2 GGCUUGUCCUUCCGCAAAGAC; listed as RNA, chemistry not given here)","recruitment of VE-cadherin, p120-catenin, F-actin and ezrin into cortical plaques after siRNA",hCMEC/D3 cells [1]; siRNA-treated Nm-infected hCMEC/D3 cells,markedly and simultaneously affected
same,Src recruitment under Nm colonies after siRNA,hCMEC/D3 cells [1]; siRNA-treated hCMEC/D3 cells,markedly reduced
same,ezrin recruitment / ezrin-containing cortical plaques under Nm colonies after siRNA,hCMEC/D3 cells [1]; siRNA-treated hCMEC/D3 cells,decrease
C=C[C@@]1(C)CC(=O)[C@]2(O)[C@@]3(C)[C@@H](O)CCC(C)(C)[C@@H]3[C@H](O)[C@H](OC(C)=O)[C@@]2(C)O1 [forskolin],number and size of Nm colonies under flow compared to control conditions,hCMEC/D3 cells [2]; pre-incubation 1 h,no significant effect
GRK2 siRNA: small interfering RNA targeting human GRK2 (SEQ ID NO: 6) (guide AAGAAGUACGAGAAGCUGGAGUU; chemistry not given here),ezrin recruitment / ezrin-containing cortical plaques under Nm colonies after siRNA,hCMEC/D3 cells [1]; siRNA-treated hCMEC/D3 cells,inhibited
same,βarr2 recruitment under Nm colonies after siRNA,"hCMEC/D3 cells [1]; siRNA-treated hCMEC/D3 cells, βarr2-GFP readout",inhibited
CC(C)NCC(O)c1ccc(O)c(O)c1 (centres unmarked) [isoproterenol],bacterial adhesion in static conditions (absence of flow),hCMEC/D3 cells [3],No significant difference; also recorded: did not reduce; also recorded: similar
same,reduction of bacterial adhesion / number of colonies forming under flow,hCMEC/D3 cells [4],40%
same,"proportion of small colonies (≤12 μm^2, about 4 bacteria) under flow","hCMEC/D3 cells [2]; preincubation of cells for 1 h with 10 μM before perfusion of bacteria, control 20% after 4 h",≈ 70%
same,"proportion of large colonies (48 μm^2 or more, ≥16 bacteria) under flow","hCMEC/D3 cells [2]; preincubation of cells for 1 h with 10 μM before perfusion of bacteria, control about 50% after 4 h",~10%
same,number of cell-cell junction gaps induced by Nm,"hCMEC/D3 cell monolayers; isoproterenol pre-treatment 10 μM, 1 h, gaps of all size",noticeably reduced
same,number of meningococci crossing the monolayer (lower chamber of transwells),"hCMEC/D3 cell monolayers; isoproterenol pre-treatment 1 h, 10 μM",markedly reduced
same,direct inhibition of Nm growth in culture or of bacterial aggregation properties,N. meningitidis,not due to a direct inhibition
same,effect on Nm-induced ezrin recruitment,"hCMEC/D3 cells [1]; hCMEC/D3 cells pre-treated with agonist for 2 h before Nm inoculation, saturating (10×KD) concentrations",showed an effect
same,number of ezrin-containing cortical plaques,"hCMEC/D3 cells [1]; isoproterenol dose response, hCMEC/D3 cells",dose-dependent reduction
CC(C)NCC(O)COc1cccc2ccccc12 (centres unmarked) [propranolol],reversal of the effect of isoproterenol pre-treatment on Nm-promoted ezrin recruitment,hCMEC/D3 cells [1]; 100 nM propranolol added during pre-incubation with 10 μM isoproterenol,blocked the effect of isoproterenol
same,"number of ezrin-containing cortical plaques elicited by Nm, agent alone",hCMEC/D3 cells [1]; preincubation with saturating propranolol alone,no effect

# Source: US20190211066A1 (INSTITUT NATIONAL DE LA SANTE ET DE LA RECHERCHE M EDICALE …, priority 2010, published 2019)
